According to US20170037028A1 (BAYER PHARMA AKTIENGESELLSCHAFT, priority 2013, published 2017):

Target: T1, GLUT1 (Homo sapiens, UniProt P11166)
T1 sequence (P11166 1-492): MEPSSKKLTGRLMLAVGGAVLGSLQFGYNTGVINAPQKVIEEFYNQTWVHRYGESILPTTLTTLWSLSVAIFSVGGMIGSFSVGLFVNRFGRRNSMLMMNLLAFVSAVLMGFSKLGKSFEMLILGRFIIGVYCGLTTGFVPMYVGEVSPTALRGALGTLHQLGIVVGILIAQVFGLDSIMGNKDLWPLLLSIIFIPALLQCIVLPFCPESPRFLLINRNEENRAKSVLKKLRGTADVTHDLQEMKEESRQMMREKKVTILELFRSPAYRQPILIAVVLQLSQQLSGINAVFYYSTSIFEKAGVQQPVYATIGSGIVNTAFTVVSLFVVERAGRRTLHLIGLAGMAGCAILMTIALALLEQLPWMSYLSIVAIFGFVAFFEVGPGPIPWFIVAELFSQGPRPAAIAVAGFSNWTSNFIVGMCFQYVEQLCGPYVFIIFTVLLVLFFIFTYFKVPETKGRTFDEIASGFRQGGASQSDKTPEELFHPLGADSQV
Experiment: Indirect measurement of GLUT1 activity by quantification of intracellular ATP levels (glucose induced ATP increase)
Assay type: cell-based
Parameters: endogenous in cells; host or cells: DLD1 or CHO-K1
Conditions: read-out: IC50 regarding glucose induced ATP increase (GLUT1 inhibition)
How it was run: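 DLD1 or CHO-K1 cells were starved overnight in glucose-free medium with 1% FCS, then combined with an oxidative phosphorylation inhibitor. GLUT1 activity was read as glucose-induced ATP increase, GLUT2 as fructose-induced. Intracellular ATP was quantified by CellTiter-Glo luminescence.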

IC50 [nM] | Compound
133 | COc1cc(C(=O)Nc2c(C)nn(Cc3ccccc3)c2C)c2ccccc2n1 [Example 65, N-(1-benzyl-3,5-dimethyl-1H-pyrazol-4-yl)-2-methoxyquinoline-4-carboxamide]
135 | Cc1nn(Cc2ccccn2)c(C)c1NC(=O)c1cc(C(F)(F)F)nc2c(Cl)cc(Cl)cc12 [Example 66, 6,8-dichloro-N-[3,5-dimethyl-1-(pyridin-2-ylmethyl)-1H-pyrazol-4-yl]-2-(trifluoromethyl)quinoline-4-carboxamide]
146 | COc1cccc(Cn2nc(C)c(NC(=O)c3cc(C(F)(F)F)nc4c(Cl)cc(Cl)cc34)c2C)c1 [Example 67, 6,8-dichloro-N-[1-(3-methoxybenzyl)-3,5-dimethyl-1H-pyrazol-4-yl]-2-(trifluoromethyl)quinoline-4-carboxamide]
148 | Cc1nn(Cc2ccccc2C#N)c(C)c1NC(=O)c1cc(C(F)(F)F)nc2c(Cl)cc(Cl)cc12 [Example 68, 6,8-dichloro-N-[1-(2-cyanobenzyl)-3,5-dimethyl-1H-pyrazol-4-yl]-2-(trifluoromethyl)quinoline-4-carboxamide]
164 | CCc1cc(C(=O)Nc2c(C)nn(Cc3ccc(F)cc3)c2C)c2ccccc2n1 [Example 69, 2-ethyl-N-[1-(4-fluorobenzyl)-3,5-dimethyl-1H-pyrazol-4-yl]quinoline-4-carboxamide]
173 | Cc1nn(Cc2ccccn2)c(C)c1NC(=O)c1cc(C(F)(F)F)nc2ccc(Br)cc12 [Example 70, 6-bromo-N-[3,5-dimethyl-1-(pyridin-2-ylmethyl)-1H-pyrazol-4-yl]-2-(trifluoromethyl)quinoline-4-carboxamide]
175 | Cc1nn(Cc2cccc(C#N)c2)c(C)c1NC(=O)c1cc(C(F)(F)F)nc2ccc(Br)cc12 [Example 71, 6-bromo-N-[1-(3-cyanobenzyl)-3,5-dimethyl-1H-pyrazol-4-yl]-2-(trifluoromethyl)quinoline-4-carboxamide]
177 | Cc1nn(Cc2cccc(F)c2)c(C)c1NC(=O)c1cc(C(F)(F)F)nc2ccc(Br)cc12 [Example 72, 6-bromo-N-[1-(3-fluorobenzyl)-3,5-dimethyl-1H-pyrazol-4-yl]-2-(trifluoromethyl)quinoline-4-carboxamide]
177 | Cc1ccc2nc(C)cc(C(=O)Nc3c(C(F)(F)F)nn(Cc4ccc(F)cc4)c3C)c2c1 [Example 73, N-[1-(4-fluorobenzyl)-5-methyl-3-(trifluoromethyl)-1H-pyrazol-4-yl]-2,6-dimethylquinoline-4-carboxamide]
181 | Cc1nn(Cc2ccccc2F)c(C)c1NC(=O)c1cc(C(F)(F)F)nc2ccc(Br)cc12 [Example 74, 6-bromo-N-[1-(2-fluorobenzyl)-3,5-dimethyl-1H-pyrazol-4-yl]-2-(trifluoromethyl)quinoline-4-carboxamide]
182 | COc1ccc2nc(O)cc(C(=O)Nc3c(C)nn(Cc4ccc(F)cc4)c3C)c2c1 [Example 75, N-[1-(4-fluorobenzyl)-3,5-dimethyl-1H-pyrazol-4-yl]-2-hydroxy-6-methoxyquinoline-4-carboxamide]
188 | COc1cc(C(=O)Nc2c(C)nn(Cc3cccc(C)c3)c2C)c2ccccc2n1 [Example 76, N-[3,5-dimethyl-1-(3-methylbenzyl)-1H-pyrazol-4-yl]-2-methoxyquinoline-4-carboxamide]
204 | COc1cc(C(=O)Nc2c(C)nn(Cc3ccccc3F)c2C)c2ccccc2n1 [Example 77, N-[1-(2-fluorobenzyl)-3,5-dimethyl-1H-pyrazol-4-yl]-2-methoxyquinoline-4-carboxamide]
223 | Cc1nn(Cc2ccc(F)cc2)c(C)c1NC(=O)c1cc(C#N)nc2ccccc12 [Example 78, 2-cyano-N-[1-(4-fluorobenzyl)-3,5-dimethyl-1H-pyrazol-4-yl]quinoline-4-carboxamide]
225 | Cc1nn(Cc2ccc(F)cc2)c(C)c1NC(=O)c1cc(C2CC2)nc2ccc(C(F)(F)F)cc12 [Example 79, 2-cyclopropyl-N-[1-(4-fluorobenzyl)-3,5-dimethyl-1H-pyrazol-4-yl]-6-(trifluoromethyl)quinoline-4-carboxamide]
229 | COc1cc(C(=O)Nc2c(C)nn(Cc3ccccc3C#N)c2C)c2ccccc2n1 [Example 80, N-[1-(2-cyanobenzyl)-3,5-dimethyl-1H-pyrazol-4-yl]-2-methoxyquinoline-4-carboxamide]
229 | COc1cccc(Cn2nc(C)c(NC(=O)c3cc(OC)nc4ccccc34)c2C)c1 [Example 81, 2-methoxy-N-[1-(3-methoxybenzyl)-3,5-dimethyl-1H-pyrazol-4-yl]quinoline-4-carboxamide]
250 | Cc1cccnc1Cn1nc(C)c(NC(=O)c2cc(C(F)(F)F)nc3c(Cl)cc(Cl)cc23)c1C [Example 82, 6,8-dichloro-N-{3,5-dimethyl-1-[(3-methylpyridin-2-yl)methyl]-1H-pyrazol-4-yl}-2-(trifluoromethyl)quinoline-4-carboxamide]
250 | Cc1nn(Cc2ccccc2OC(F)(F)F)c(C)c1NC(=O)c1cc(C(F)(F)F)nc2ccc(Br)cc12 [Example 83, 6-bromo-N-{3,5-dimethyl-1-[2-(trifluoromethoxy)benzyl]-1H-pyrazol-4-yl}-2-(trifluoromethyl)quinoline-4-carboxamide]
255 | Cc1ccc2nc(C)cc(C(=O)Nc3c(C)nn(Cc4c(F)cccc4F)c3C)c2c1 [Example 84, N-[1-(2,6-difluorobenzyl)-3,5-dimethyl-1H-pyrazol-4-yl]-2,6-dimethylquinoline-4-carboxamide]
257 | Cc1nn(Cc2ccc(F)cc2)c(C)c1NC(=O)c1cc(C(F)(F)F)nc2c(F)cccc12 [Example 85, 8-fluoro-N-[1-(4-fluorobenzyl)-3,5-dimethyl-1H-pyrazol-4-yl]-2-(trifluoromethyl)quinoline-4-carboxamide]
257 | Cc1cc(C(=O)Nc2c(C)nn(Cc3ccc(F)cc3)c2C)c2cccc(C)c2n1 [Example 86, N-[1-(4-fluorobenzyl)-3,5-dimethyl-1H-pyrazol-4-yl]-2,8-dimethylquinoline-4-carboxamide]
267 | COc1cc(C(=O)Nc2c(C)nn(Cc3cccc(F)c3)c2C)c2ccccc2n1 [Example 87, N-[1-(3-fluorobenzyl)-3,5-dimethyl-1H-pyrazol-4-yl]-2-methoxyquinoline-4-carboxamide]
281 | Cc1nn(Cc2ccc(F)cc2)c(C)c1NC(=O)c1cc(C(F)(F)F)nc2cc(Br)ccc12 [Example 88, 7-bromo-N-[1-(4-fluorobenzyl)-3,5-dimethyl-1H-pyrazol-4-yl]-2-(trifluoromethyl)quinoline-4-carboxamide]
281 | Cc1ccccc1Cn1nc(C)c(NC(=O)c2cc(C(F)(F)F)nc3c(Cl)cc(Cl)cc23)c1C [Example 89, 6,8-dichloro-N-[3,5-dimethyl-1-(2-methylbenzyl)-1H-pyrazol-4-yl]-2-(trifluoromethyl)quinoline-4-carboxamide]
291 | Cc1cc(C(=O)Nc2c(C)nn(Cc3ccc(F)cc3)c2C)c2cc(F)ccc2n1 [Example 90, 6-fluoro-N-[1-(4-fluorobenzyl)-3,5-dimethyl-1H-pyrazol-4-yl]-2-methylquinoline-4-carboxamide]
